{"source": "patent US10213451B2", "about": "“Methods and compounds for modulating the secretion or expression of adhesion proteins or angiopoietins of cells” (PACIFIC ARROW LIMITED, priority 2004, dated 2019)", "key": {"[1]": {"tested_on": "60 cancer cell lines", "assay": "Test with 60 cancer cell lines", "type": "cell-based", "conditions": "most of 60 cancer cell lines tested", "experimental": "To investigate the anti-tumor activity of Xanthoceras sorbifolia, we employed cancer cell lines derived from different human organs and tested the effect on growth activity. […] Intl App'l No. PCT/US04/33359 and U.S. Ser. No. 10/906,303. The active compound was then purified and named Xanifolia-Y. Its chemical structure was determined by 2D NMR and MS analysis. Xanifolia-Y is a novel triterpenoid saponin with a diangeloyl group attached at one end and carbohydrates or sugar moieties at another end of the triterpene structure. In an embodiment, the diangeloyl attached at C21, C22 positions and carbohydrates or sugar moieties at C3 position of a triterpene structure. The diangeloyl group is important for its activity. The purified compound has been tested with 60 cancer cell lines."}, "[2]": {"tested_on": "HeLa cells", "assay": "MTT assay HeLa", "type": "cell-based", "conditions": "Homo sapiens", "experimental": "Cells. Human cancer cell lines were obtained from American Type Culture Collection: HTB-9 (bladder), HeLa-S3 (cervix), DU145 (prostate), H460 (lung), MCF-7 (breast), K562 (leukocytes), HCT116 (colon), HepG2 (liver), U2OS (bone), T98G (brain), SK-MEL-5 (Skin) and OVCAR-3 (ovary). The cells were grown in following culture media: HeLa-53, DU145, MCF-7, Hep-G2 and T98G are in MEN (Earle's salts); HTB-9, H460, K562 and OVCAR-3 in RPMI-1640; HCT-116 and U2OS in McCoy-5A. They are supplemented with 10% fetal calf serum, glutamine and antibiotics, and incubated in an incubator with 5% CO2 humidified at 37° C.\nMTT Assay. The procedure for MTT assay followed the method described by Carmichael et al. (1987) with modifications. […] The formazan (product of the reduction of tetrazolium by viable cells) formed and was dissolved with DMSO and the O.D. at 490 nm, and was measured by an ELISA reader. The MTT level of the cells before drug-treatment was also measured (T0). The % cell-growth (% G) is calculated as: % G=(TD−T0/TC−T0)×100(1), where TC or TD represents O.D. readings of control or drug-treated cells. When T0>TD, then the cytotoxicity (LC) expressed as % of the control is calculated as: % LC=(TD−T0/T0)×100(2)."}}, "data": [{"smiles": "C/C=C(/C)C(=O)O[C@H]1[C@H](OC(=O)/C(C)=C\\C)[C@@]2(CO)C(CC1(C)C)C1=CCC3[C@@]4(C)CC[C@H](O[C@@H]5OC(C(=O)O)[C@@H](O)C(O[C@@H]6O[C@@H](CO)C(O)C6O)C5O[C@@H]5OC(CO)[C@H](O)C(O)C5O)C(C)(C)C4CC[C@@]3(C)[C@]1(C)[C@@H](O)[C@H]2O", "note": "(stereo partly drawn) [Xanifolia-Y, 3-O-[β-D-galactopyranosyl (1→2)]-α-L-arabinofuranosy (1→3)-β-D-glucuronopyranosyl-21,22-O-diangeloyl-3β, 15α, 16α, 21β, 22α, 28-hexahydroxyolean-12-ene]", "values": [{"measurement": "GI50", "setting": "[1]", "result": "0.1 to 1", "unit": "µM"}, {"measurement": "IC50", "setting": "[2]", "result": 20, "unit": "µg/mL"}]}]}
